Measured values published in patent US4716222A, “Substrates for hydrolases” (Hoechst Aktiengesellschaft, priority 1984, dated 1987).
Like-named read-outs stand apart in the source and are kept apart here. Values belong to the compound of their own block, whether it stands above or below them.

Key:
[1] = Extinction coefficients and absorption maxima of dyes at different pH values; assay type: physicochemical
pKa of the dyes A-OH = assay type: physicochemical
Source text: The compounds of the formula A--O--B can be used as substrates for the detection and the determination of hydrolases. The dye A--OH, which is liberated on cleavage, has appreciable advantages over those of the state of the art. […] This means that even in the pH range below 7 there is compared with p-nitrophenol, a considerably higher extinction at the same molarity, so that the new substrates prepared from these dyes can therefore be measured with considerably greater sensitivity.

β-glucosidase = experiment: Determination of β-glucosidase activity in a urine sample; assay type: biochemical, human; settings: for Absorbance Difference/min delta A/min: T = 25° C.
Source text: The determination of β-glucosidase activity in human urine has hitherto not been possible with the usual assays because of their limited sensitivity.

IgE = experiment: Determination of IgE with a state of the art enzyme immunoassay; settings: same incubation periods; for absorbance change: measuring wavelength 405 nm, same sample
Method: A substantial increase in sensitivity could be achieved using the new substrates in an enzyme immunoassay of the state of the art. In this assay the IgE concentration is determined, as a measure of an allergy by means of the indirect antibody technique. With the same incubation periods for the different substrates, an approximately 4.3-fold higher absorbance for resorufin-β-galactoside (compound S6) and an approximately 1.7-fold higher absorbance for 3-hydroxy-2-nitropyridine-β-galacto-side was measured than for the commercially available o-nitrophenyl-β-galactoside.

α-amylase = experiment: Determination of α-amylase activity in a urine sample without auxiliary enzyme α-glucosidase; assay type: biochemical; settings: for absorbance change, fold greater than with the nitrophenyl derivative / delta A/min: urine sample; for delta A/min: without auxiliary enzyme α-glucosidase
Method: For determination of α-amylase, the measured extinction changes were compared for the following new substrates: 2H-7-O-(α-D-maltotriosyl)-4-methyl-8-nitrobenzopyran-2-one (compound S10), the corresponding maltotetraosyl compound (compound S11) as well as o-nitrophenyl α-maltotrioside.
585 mg of NaCl and 200 mg of compound S10 were dissolved in 100 ml of M/15 phosphate buffer, pH 6.0. 20 μl of urine were pipetted into 1 ml of this solution which was thoroughly mixed. The change in absorbance at 365 nm was continuously recorded in a photometer with a pen recorder attached. The change in absorbance per miute (delta A/min) was calculated from the recording on the pen recorder, and the enzyme activity (U/L) was calculated using the following formula: [formula] 1.02=assay volume including the sample, in ml 0.02=sample volume in ml

acid phosphatase = target: T1, acid phosphatase (Homo sapiens, UniProt P15309); experiment: Kinetic determination of acid phosphatase in seminal plasma; assay type: biochemical
T1 construct: from tissue; host or cells: seminal plasma, diluted 1:101
T1 sequence (P15309 33-386): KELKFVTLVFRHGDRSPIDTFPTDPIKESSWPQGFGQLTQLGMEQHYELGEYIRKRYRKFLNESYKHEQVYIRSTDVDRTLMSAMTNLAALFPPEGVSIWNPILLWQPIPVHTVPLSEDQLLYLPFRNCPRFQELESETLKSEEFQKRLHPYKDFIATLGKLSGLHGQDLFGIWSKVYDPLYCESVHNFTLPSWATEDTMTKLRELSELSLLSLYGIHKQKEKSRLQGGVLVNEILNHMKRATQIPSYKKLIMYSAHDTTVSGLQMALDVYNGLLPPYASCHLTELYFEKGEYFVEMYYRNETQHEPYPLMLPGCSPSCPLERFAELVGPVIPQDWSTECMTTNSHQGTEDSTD
Method: The activity of acid phosphatase could be kinetically determined substantially more sensitively with 2H-7-O-4-methyl-8-nitrobenzopyran-2-one phosphate (compound S13) than with nitrophenyl phosphate. The determination was carried out in seminal plasma, diluted 1:101 using both substrates. 0.01 ml of diluted sample was added to 1 ml of a buffered substrate solution, pH 4.8 and the extinction changes kinetically recorded at 405 or 365 nm.

Structure (SMILES): O=[N+]([O-])c1ncccc1O [3-Hydroxy-2-nitropyridine]
Extinction coefficient ([1]; pH 4.0, 405 nm): 0.50 1·mol^-1·cm^-1·10^3
Extinction coefficient ([1]; pH 5.0, 405 nm): 2.32 1·mol^-1·cm^-1·10^3
Extinction coefficient ([1]; pH 6.0, 405 nm): 5.09 1·mol^-1·cm^-1·10^3
Extinction coefficient ([1]; pH 7.1, 405 nm): 5.80 1·mol^-1·cm^-1·10^3
Extinction coefficient ([1]; pH 10, 405 nm): 5.90 1·mol^-1·cm^-1·10^3
pKa (pKa of the dyes A-OH): 5.1

Structure (SMILES): O=c1oc2cc(O)ccc2cc1[N+](=O)[O-] [7-hydroxy-3-nitrocoumarin]
absorption maximum ([1]; pH<6): 390 nm
absorption maximum ([1]; pH>8): 450 nm

Structure (SMILES): O=[N+]([O-])c1ncccc1O[C@@H]1O[C@H](CO)[C@H](O)[C@H](O)[C@H]1O [compound S7, 3-O-(β-D-Galactopyranosyl)-2-nitropyridine]
absorbance change (IgE): 0.298
fold higher absorbance than o-nitrophenyl-β-galactoside (IgE): approximately 1.7 fold

Structure (SMILES): Cc1cc(=O)oc2c([N+](=O)[O-])c(O[C@H]3O[C@H](CO)[C@@H](O[C@H]4O[C@H](CO)[C@@H](O[C@H]5O[C@H](CO)[C@@H](O)[C@H](O)[C@H]5O)[C@H](O)[C@H]4O)[C@H](O)[C@H]3O)ccc12 [compound S10, 2H-7-O-(α-D-Maltotriosyl)-4-methyl-8-nitrobenzopyran-2-one]
absorbance change, fold greater than with the nitrophenyl derivative (α-amylase): 32 fold
delta A/min (α-amylase): 0,635 A/min

Structure (SMILES): Cc1cc(=O)oc2c([N+](=O)[O-])c(O[C@H]3O[C@H](CO)[C@@H](O[C@H]4O[C@H](CO)[C@@H](O[C@H]5O[C@H](CO)[C@@H](O[C@H]6O[C@H](CO)[C@@H](O)[C@H](O)[C@H]6O)[C@H](O)[C@H]5O)[C@H](O)[C@H]4O)[C@H](O)[C@H]3O)ccc12 [compound S11, 2H-7-O-(α-D-Maltotetraosyl)-4-methyl-8-nitrobenzopyran-2-one]
absorbance change, fold greater than with the nitrophenyl derivative (α-amylase): approximately 14 fold
delta A/min (α-amylase): 0,134 A/min

Structure (SMILES): O=[N+]([O-])c1ncccc1O[C@H]1O[C@H](CO)[C@@H](O[C@H]2O[C@H](CO)[C@@H](O[C@H]3O[C@H](CO)[C@@H](O)[C@H](O)[C@H]3O)[C@H](O)[C@H]2O)[C@H](O)[C@H]1O [compound S12, 3-O-(α-D-Maltotriosyl)-2-nitropyridine]
absorbance changes in comparison with the state of the art (α-amylase; without auxiliary enzyme, immediately linear kinetics): sufficiently high absorbance changes

Structure (SMILES): Cc1cc(=O)oc2c([N+](=O)[O-])c(OP(=O)(O)O)ccc12 [compound S13, 2H-7-O-(Phosphoryl)-4-methyl-8-nitrobenzopyran-2-one]
absorbance change, fold greater than for nitrophenyl phosphate (acid phosphatase): about 13 fold
Ratio of the absorbance changes (acid phosphatase; relative to p-nitrophenyl phosphate): 13
delta A/min (acid phosphatase; seminal plasma diluted 1:101, pH 4.8, 405 or 365 nm): 0,0975 A/min

Structure (SMILES): O=[N+]([O-])c1ccccc1O[C@H]1O[C@H](CO)[C@@H](O[C@H]2O[C@H](CO)[C@@H](O[C@H]3O[C@H](CO)[C@@H](O)[C@H](O)[C@H]3O)[C@H](O)[C@H]2O)[C@H](O)[C@H]1O [nitrophenyl derivative, o-nitrophenyl α-maltotrioside]
delta A/min (α-amylase): 0,020 A/min

Structure (SMILES): O=[N+]([O-])c1ccccc1O [o-Nitrophenol]
Extinction coefficient ([1]; pH 4.0, 405 nm): 0.47 1·mol^-1·cm^-1·10^3
Extinction coefficient ([1]; pH 5.0, 405 nm): 0.48 1·mol^-1·cm^-1·10^3
Extinction coefficient ([1]; pH 6.0, 405 nm): 0.75 1·mol^-1·cm^-1·10^3
Extinction coefficient ([1]; pH 7.1, 405 nm): 2.34 1·mol^-1·cm^-1·10^3
Extinction coefficient ([1]; pH 10, 405 nm): 4.01 1·mol^-1·cm^-1·10^3
pKa (pKa of the dyes A-OH): 7.08

Structure (SMILES): O=[N+]([O-])c1ccccc1O[C@@H]1O[C@H](CO)[C@H](O)[C@H](O)[C@H]1O [o-Nitrophenyl galactoside, o-nitrophenyl-β-galactoside]
absorbance change (IgE): 0.176

Structure (SMILES): O=[N+]([O-])c1ccc(O)cc1 [p-Nitrophenol]
Extinction coefficient ([1]; pH 4.0, 405 nm): 0.20 1·mol^-1·cm^-1·10^3
Extinction coefficient ([1]; pH 5.0, 405 nm): 0.40 1·mol^-1·cm^-1·10^3
Extinction coefficient ([1]; pH 6.0, 405 nm): 1.50 1·mol^-1·cm^-1·10^3
Extinction coefficient ([1]; pH 7.1, 405 nm): 9.7 1·mol^-1·cm^-1·10^3
Extinction coefficient ([1]; pH 10, 405 nm): 18.30 1·mol^-1·cm^-1·10^3

Structure (SMILES): O=[N+]([O-])c1ccc(O[C@@H]2O[C@H](CO)[C@@H](O)[C@H](O)[C@H]2O)cc1 [p-nitrophenyl derivative, p-nitrophenyl β-D-glucopyranoside]
Absorbance Difference/min delta A/min (β-glucosidase): 0,0476 A/min

Now from value to compound:

Extinction coefficient ([1]; pH 4.0, 365 nm): 7.84 1·mol^-1·cm^-1·10^3
Extinction coefficient ([1]; pH 5.0, 365 nm): 11.87 1·mol^-1·cm^-1·10^3
Extinction coefficient ([1]; pH 6.0, 365 nm): 12.9 1·mol^-1·cm^-1·10^3
Extinction coefficient ([1]; pH 7.1, 365 nm): 13.2 1·mol^-1·cm^-1·10^3
Extinction coefficient ([1]; pH 10, 365 nm): 13.2 1·mol^-1·cm^-1·10^3
pKa (pKa of the dyes A-OH): 3.9
Structure (SMILES): O=[N+]([O-])c1nc(Cl)ccc1O [3-Hydroxy-2-nitro-6-chloropyridine]

Extinction coefficient ([1]; pH 4.0, 405 nm): 4.93 1·mol^-1·cm^-1·10^3
Extinction coefficient ([1]; pH 5.0, 405 nm): 5.34 1·mol^-1·cm^-1·10^3
Extinction coefficient ([1]; pH 6.0, 405 nm): 5.40 1·mol^-1·cm^-1·10^3
Extinction coefficient ([1]; pH 7.1, 405 nm): 5.48 1·mol^-1·cm^-1·10^3
Extinction coefficient ([1]; pH 10, 405 nm): 5.4 1·mol^-1·cm^-1·10^3
pKa (pKa of the dyes A-OH): 3.1
Structure (SMILES): O=[N+]([O-])c1ccnc(Cl)c1O [3-Hydroxy-4-nitro-2-chloropyridine]

pKa (pKa of the dyes A-OH): 4.45
Structure (SMILES): Cc1cc(=O)oc2c([N+](=O)[O-])c(O)ccc12 [4-Methyl-8-nitrobenzopyran-2-one, 2H-7-hydroxy-4-methyl-8-nitrobenzopyran-2-one]

Extinction coefficient ([1]; pH 4.0, 574 nm, mercury lamp photometer, calculated): 1.00 1·mol^-1·cm^-1·10^3
Extinction coefficient ([1]; pH 4.0, 578 nm, variable wavelength photometer): 0.75 1·mol^-1·cm^-1·10^3
Extinction coefficient ([1]; pH 5.0, 574 nm, mercury lamp photometer, calculated): 7.4 1·mol^-1·cm^-1·10^3
Extinction coefficient ([1]; pH 5.0, 578 nm, variable wavelength photometer): 5.7 1·mol^-1·cm^-1·10^3
Extinction coefficient ([1]; pH 6.0, 574 nm, mercury lamp photometer, calculated): 29.64 1·mol^-1·cm^-1·10^3
Extinction coefficient ([1]; pH 6.0, 578 nm, variable wavelength photometer): 22.80 1·mol^-1·cm^-1·10^3
Extinction coefficient ([1]; pH 7.1, 574 nm, mercury lamp photometer): 49.87 1·mol^-1·cm^-1·10^3
Extinction coefficient ([1]; pH 7.1, 578 nm, variable wavelength photometer): 39.6 1·mol^-1·cm^-1·10^3
Extinction coefficient ([1]; pH 10, 574 nm, mercury lamp photometer): 55.42 1·mol^-1·cm^-1·10^3
Extinction coefficient ([1]; pH 10, 578 nm, variable wavelength photometer): 41.000 1·mol^-1·cm^-1·10^3
Structure (SMILES): O=c1ccc2nc3ccc(O)cc3oc-2c1 [Resorufin, 3H-7-hydroxyphenoxazin-3-one]

absorption maximum [1]: 578 nm
molar extinction coefficient ([1]; 578 nm and pH 7.1): 64,420 1.mol^-1.cm^-1
pKa (pKa of the dyes A-OH): 5.55
Structure (SMILES): N#Cc1c2ccc(=O)cc-2oc2cc(O)ccc12 [compound C1, 3H-7-Hydroxy-9-cyanoxanthen-3-one]

fold larger absorbance change per minute than with p-nitrophenyl β-D-glucopyranoside (β-glucosidase): approximately 7 fold
Absorbance Difference/min delta A/min (β-glucosidase): 0,332 A/min
Structure (SMILES): O=[N+]([O-])c1ncccc1O[C@@H]1O[C@H](CO)[C@@H](O)[C@H](O)[C@H]1O [compound S5, 3-O-(β-D-Glucopyranosyl)-2-nitropyridine]
